From paper PMC6331856, “Carapanolides T–X from Carapa guianensis (Andiroba) Seeds” (Molecules, 2015)

Legend:
[1] = test system: NO production; details: previous study; read-out: inhibitory activity on NO production IC50; cited from earlier work
[2] = test system: NO production in LPS-stimulated RAW264.7 cells; test: Inhibitory assay of NO production in LPS-stimulated RAW264.7 cells; format: cell-based; details: Mus musculus, LPS 5 μg/mL, 24 h treatment
Protocol: (§1) Macrophages may be a potential therapeutic target for inflammatory diseases. Activated macrophages release pro-inflammatory mediators, such as NO, reactive oxygen, interleukin-1 beta, tumor necrosis factor-alpha and other inflammatory mediators, which play important roles in biological defense. […] In the present study, four limonoids and N^G-monomethyl-L-arginine acetate (L-NMMA), an inducible nitric oxide synthase (iNOS) inhibitor, were evaluated for their inhibitory effects on NO production in LPS-stimulated RAW264.7 cells (Figure 5). To determine safe concentrations, the cytotoxicities of these limonoids against RAW 264.7 were assessed by the MTT assay.
An inhibitory assay of nitric oxide production was performed according to a method reported previously with slight modifications. Briefly, RAW264.7 cells (5 × 10^4 cells in 100 μL) were seeded onto 96-well microplates and incubated for 24 h. D-MEM (100 μL) containing test samples (final concentration of 100, 30, 10 or 3 μM) dissolved in DMSO (final concentration 0.2%) and LPS (final concentration of 5 μg/mL) were added. After cells had been treated for 24 h, 50 μL of 0.1% N-(1-naphtyl)ethylenediamine in H2O and 50 μL of 1% sulfanilamide in 5% phosphoric acid were added. After being incubated for 30 min, the absorbance of each well was read at 570 nm using a microplate reader. […]

[3] = test system: RAW264.7 cells; test: RAW264.7 cell proliferation / cytotoxicity by MTT assay; format: cell-based
Protocol: as §1
RAW264.7 cell proliferation was examined according to a method reported previously with few modifications. Briefly, RAW264.7 cells (5 × 10^4 cells in 100 μL) were seeded onto 96-well microplates and incubated for 24 h. D-MEM (100 μL) containing test samples (final concentration of 100, 30, 10 or 3 μM) dissolved in DMSO (final concentration 0.2%) was added. After the cells had been treated for 24 h, the MTT solution was added. After 3 h of incubation, 20% sodium dodecyl sulfate (SDS) in 0.1 M HCl was added to dissolve the formazan produced by the cells. The absorbance of each well was read at 570 nm using a microplate reader. The optical density of vehicle control cells was assumed to be 100%.

[4] = at the effective concentration 10 μM

In the case of “6α-acetoxy-7α-deacetoxy-7α-hydroxygedunin”, the IC50 [1] is listed as 9.4 µM.
In the case of `CC(=O)O[C@H]1[C@@H](OC(C)=O)[C@]2(C)[C@H](CC[C@@]3(C)[C@H](c4ccoc4)OC(=O)[C@H]4O[C@@]423)[C@@]2(C)C=CC(=O)C(C)(C)[C@H]12` [6α-acetoxygedunin], the IC50 [1] is given as 7.9 µM.
In the case of `CC(=O)O[C@@H]1[C@H](O)C2C(C)(C)C(=O)C=C[C@]2(C)C2CC[C@@]3(C)[C@H](c4ccoc4)OC(=O)[C@H]4O[C@]43[C@@]21C` (stereo partly drawn) [6α-hydroxygedunin], the IC50 [1] is listed as 19.1 µM.
In the case of `CC1(C)C(=O)C=CC2(C)C1CC(O)C1(C)C2CCC2(C)C(c3ccoc3)OC(=O)C3OC321` (stereo not drawn) [7-deacetoxy-7-hydroxygedunin], the IC50 [1] is given as 8.4 µM.
For `CC1(C)C(=O)C=CC2(C)C1CC(=O)C1(C)C2CCC2(C)C(c3ccoc3)OC(=O)C3OC321` (stereo not drawn) [7-deacetoxy-7-oxogedunin], the IC50 [1] is listed as 12.8 µM.
For `COC(=O)CC1C(C)(C)C(OC(=O)C(C)C)C2(O)CC3(O)C4=CC(=O)OC(c5ccoc5)C4(C)CCC3C1(C)C2=O` (stereo not drawn) [Compound 1, Carapanolide T], the melting point was 83 to 85 °C, the IC50 [2] was 22 µM and the “cytotoxicity against RAW264.7” value ([3]; at 30 μM) was “low cytotoxicity”. For the same molecule, the “cytotoxicity against RAW264.7” value [3, 4] was “not at the effective concentration”.
For `CC=C(C)C(=O)OC1C2(O)CC3(O)C4=CC(=O)OC(c5ccoc5)C4(C)CCC3C(C)(C2=O)C(CC(=O)OC)C1(C)C` (stereo not drawn) [Compound 2, Carapanolide U], the melting point was 133 to 136 °C, the IC50 [2] was 23.3 µM and the “cytotoxicity against RAW264.7” value ([3]; at 1–30 μM) was “did not show cytotoxicities”. The “cytotoxicity against RAW264.7” value [3, 4] was “not at an effective concentration”.
In the case of `CC(=O)O[C@@H]1C[C@H]2C(C)(C)C(=O)C=C[C@]2(C)[C@H]2CC[C@@]3(C)[C@H](c4ccoc4)OC(=O)[C@H]4O[C@]43[C@@]21C` [gedunin], the IC50 [1] is listed as 4.6 µM.
In the case of carapanolide J, the IC50 [1] is listed as 37.4 µM.
